Experimental data as given in patent US9382204B2, “Inhibitors targeting the DNA-binding domain of human STAT3 for treatment of metastatic cancers” (Indiana University Research and Technology Corporation, priority 2013, dated 2016).

How the values were obtained:
[1] = system: A549 cells; experiment: Matrigel invasion assay, A549; format: cell-based, human
Method: (§1) For wound-healing assay, 1×10^5 cells per well were plated in 6-well plates followed by introduction of a wound and monitoring the healing process of the wound over a 24-hour period. The healing of the wound was determined by measuring the remaining gap between two migrating edges at different times. […] At different times, invading cells were stained with crystal violate and counted.

[2] = system: hematopoietic progenitor cells from STAT3−/− mice; experiment: Hematopoietic progenitor cell colony formation assay, STAT3−/− mice; format: cell-based, mouse; details: 20 μM
Method: Hematopoietic progenitor cell colony formation assay was performed as previously described. Briefly, 5×10^4 STAT3^+/+ and STAT3^−/− mouse (C57BL/6) bone marrow cells were stimulated in vitro with 1 U/ml recombinant human erythropoietin, 50 ng/ml recombinant mouse stem cell factor and 5% vol/vol pokeweed mitogen mouse spleen cell conditioned medium, and 0.1 mM hemin in the presence of either IMDM medium, IMDM medium plus inS3-54 analogues or DMSO vehicle control. Colonies were scored seven days after incubation at 37° C. with 5% CO2 and lowered (5%) 02.

[3] = system: A549 cells; experiment: Wound-healing migration assay, A549; format: cell-based, human; details: 24 hours
Method: as §1

[4] = system: MDA-MB-468; experiment: PARP cleavage in MDA-MB-468 cells; format: cell-based, human; details: 72-hour treatment, data not shown
[5] = system: STAT3; experiment: IL-6 stimulated STAT3 activation in serum-starved A549 cells; details: 25 ng/ml IL-6
[6] = system: A549, H1299, MDA-MB-231 and MDA-MB-468 cells; experiment: Cytotoxicity sulphorhodamine (SRB) assay, cancer cells; format: cell-based, human
[7] = system: A549 and MDA-MB-231 cells; experiment: Apoptosis ELISA of exponentially growing cells; format: cell-based, human; details: 72 hours
[8] = system: A549 cells; experiment: Proliferation and apoptosis of 100% confluent A549 cells; format: cell-based, human
Method: (§2) FIG. 9. Effect of inS3-54 on cell growth and apoptosis of confluent cells. […] (**p<0.01; *p<0.05).
(§3) FIG. 21. Effects of inS3-54A18 on cell growth and apoptosis of confluent cells.
(§4) Although we used 100% confluent cells and short time incubation in the above assays, inS3-54 inhibition of proliferation may still contribute to the above observed outcome. To eliminate this possibility, we analyzed cell proliferation and apoptosis under the same condition as wound-healing and Matrigel invasion assays with confluent cultures. […] Thus, we conclude that inS3-54 inhibition of migration and invasion is unlikely due to its effect on apoptosis and cell proliferation.

[9] = system: MDA-MB-231 cells; experiment: Wound-healing migration assay, MDA-MB-231; format: cell-based, human; details: 24 hours
Method: as §1

[10] = system: MDA-MB-231 cells; experiment: Proliferation and apoptosis of 100% confluent MDA-MB-231 cells; format: cell-based, human
Method: as §2, §3, §4

[11] = system: STAT3; experiment: STAT3 dimerization (STAT3c non-reducing PAGE, HA/FLAG co-immunoprecipitation) in H1299 cells; format: cell-based, human; details: 20 μM
Description: To eliminate the possibility that inS3-54 works by off-targeting to the SH2 domain, we tested if inS3-54 inhibits STAT3 dimerization using FLAG-STAT3c, which forms spontaneous homo-dimers via formation of intermolecular disulfide bond.
However, inS3-54 had no effect on production of dimeric STAT3c separated using non-reducing SDS-PAGE or non-denaturing PAGE (FIG. 6B) while S3I-201, a STAT3 inhibitor that binds to the SH2 domain, inhibited STAT3c dimerization (FIG. 6B). To confirm this observation, we performed a co-immunoprecipitation analysis of HA and FLAG-tagged STAT3.

[12] = system: STAT3; experiment: STAT3-dependent luciferase reporter assay in transiently transfected H1299 cells; format: cell-based, human; details: newly synthesized compound
Description: FIG. 1. Schematic diagram and identification of inS3-54 by virtual screening. (A) DNA-STAT3 complex structure (PDB code: 1BG1). […] (B) Luciferase activity assay of MDA-MB-231 cells stably transfected with STAT3-dependent luciferase reporter. (C) Structure of inS3-54. (D) Luciferase activity assay of H1299 cells transiently transfected with STAT3-dependent luciferase reporter. (E) Simulated average complex structure of inS3-54 in the DBD of STAT3. (F & G) Molecular surface of STAT3 (F) and STAT1 (G) complexed with inS3-54 from MD simulation with orientation shown in gold for STAT3 and pink for STAT1. Molecular surface is colored with gray for carbon, blue for nitrogen, red for oxygen and yellow for sulfur. (**p<0.01).
To confirm the activity of the compound using re-supplied material, to eliminate the potential issues associated with the use of a single stable clone harboring the luciferase reporter gene, and to test if inS3-54 is cell line specific, we tested newly synthesized inS3-54 using H1299 cells transiently transfected with the STAT3-driven luciferase reporter plasmid. […] Thus, the activity of inS3-54 is not derived from potential contamination in the original supply and it is not dependent on cell line specific or transfection method used.

[13] = system: IMR90 and MCF10A1 cells; experiment: Cytotoxicity sulphorhodamine (SRB) assay, non-cancerous cells
Method: FIG. 7. […] (A) Level of STAT3 expression and activation. […] Actin was used as a loading control. (B-C) Cytotoxicity assay. […] IC50 of inS3-54 for each cell line was derived using PrismPad program. (D) Apoptosis assay.
Cytotoxicity of inS3-54 was determined using sulphorhodamine colorimetric assay as described previously (41). Photometric enzyme immunoassay using Cell Death Detection ELISA Plus kit (Roche Diagnostics, Indianapolis, Ind.) was performed for quantitative in-vitro determination of cytoplasmic histone-associated DNA fragments and apoptosis as we previously described.
Survival, apoptosis, migration, and invasion assays were performed as previously described. Briefly, effect of STAT3 inhibitors on cell survival were analyzed using sulforhodamine B (SRB) assay. Apoptosis induced by STAT3 inhibitors cells were quantified using Cell Death Detection ELISA^PLUS Kit (Roche, Mannheim, Germany) by enzyme-linked immunosorbent assay (ELISA) according to manufacturer's instructions. Wound filling assay was performed by culturing 1×10^5 cells/well in 6-well plates, followed by generating a wound using a pipet tip and continuous culture with photographic recording at different times.

[14] = mouse, in vivo

O=C(O)c1ccc(N2C(=O)/C(=C/c3ccc([N+](=O)[O-])cc3)C=C2c2ccccc2)cc1 [inS3-54, 4-[(3E)-3-[(4-nitrophenyl)-methylidene]-2-oxo-5-phenylpyrrol-1-yl]benzoic acid]
invasion reduced to, compared with control ([1]; 10 μM, 6 hours): 67% | invasion reduced to, compared with control ([1]; 20 μM, 6 hours): 49% | activity at 10 µM ([1]; Homo sapiens, A549, 10 μM, 24 hours, read-out: invasion, % of controls): ~71% | activity at 20 µM ([1]; Homo sapiens, A549, 20 μM, 24 hours, read-out: invasion, % of controls): 33% | colony formation of hematopoietic progenitor cells from STAT3−/− mice [2]: further reduced | wounds healed ([3]; 10 μM): 54% | wounds healed ([3]; 20 μM): 27% | cleavage of PARP [4]: induced cleavage of PARP | IL-6-stimulated phosphorylation / activation of STAT3 [5]: had no effect | IL-6 stimulated expression of survivin [5]: inhibited | IC50 ([6]; Homo sapiens, 72 h, read-out: IC50 in cytotoxicity assay, cancer cells): 3.2 to 5.4 µM | apoptosis (ELISA) [7]: induced apoptosis | proliferation and apoptosis of confluent A549 cells ([8]; 20 μM, 24 hours): no significant effect | wounds healed ([9]; 10 μM): 77% | wounds healed ([9]; 20 μM): 29% | proliferation and apoptosis of confluent MDA-MB-231 cells ([10]; 10 μM): did not significantly decrease proliferation or increase apoptosis | apoptosis of confluent cells ([10]; 20 μM, 6 hours): no apoptosis was observed | apoptosis of confluent MDA-MB-231 cells ([10]; 20 μM, 24 hours): increases apoptosis | proliferation of confluent MDA-MB-231 cells ([10]; 20 μM, 24 hours): decreased the proliferation | production of dimeric STAT3c ([11]; 24 hrs, non-reducing SDS-PAGE or non-denaturing PAGE): had no effect | co-immunoprecipitation between HA- and FLAG-tagged STAT3 ([11]; H1299 cells): had no effect | STAT3-dependent luciferase reporter expression [12]: significantly inhibits

O=C1C(=Cc2ccc(Cl)cc2)C=C(c2ccccc2)N1c1ccc(O)cc1 [Compound A18]
cell invasion inhibited ([1]; 5 μM, 6 hours): 66% | invasion reduced to, compared with control ([1]; 10 μM, 6 hours): 35% | wounds healed ([3]; 5 μM): 64% | wounds healed ([3]; 10 μM): 47% | IL-6-stimulated phosphorylation / activation of STAT3 [5]: did not inhibit | IL-6 stimulated expression of survivin [5]: inhibited | apoptosis (ELISA) [7]: remarkable induction of apoptosis | proliferation and apoptosis of confluent A549 ([8]; 5 and 10 μM, 6 or 24 hours): no significant effect | wounds healed ([9]; 5 μM): 76% | wounds healed ([9]; 10 μM): 39% | apoptosis of confluent MDA-MB-231 cells ([10]; 5 and 10 μM, 24 hours): did not induce any apoptosis | reduction of proliferation of confluent MDA-MB-231 cells ([10]; 5 and 10 μM, 24 hours): < 20% | cytotoxicity to noncancerous cells [13]: little cytotoxicity | dose tolerated by mice [14]: up to 200 mg/kg

CC(=O)Nc1ccc(N2C(=O)C(=Cc3ccc(Cl)cc3)C=C2c2ccccc2)cc1 [Compound A26]
in-vitro therapeutic window ([6]; IC50 in non-cancerous cells divided by that in different cancer cells): small | cytotoxicity to lung fibroblast [13]: high level cytotoxicity | IC50 ([13]; read-out: IC50, noncancerous lung fibroblast, lung fibroblast (IMR90)): 4 µM
